The values below come from ChEMBL document CHEMBL2380196, “New anticancer active and selective phenylene-bisbenzothiazoles: synthesis, antiproliferative evaluation and DNA binding” (Eur J Med Chem, 2013).

Test [1] deals with T1, DNA topoisomerase 1 (Homo sapiens) (UniProt P11387).
T1 sequence (whole entry): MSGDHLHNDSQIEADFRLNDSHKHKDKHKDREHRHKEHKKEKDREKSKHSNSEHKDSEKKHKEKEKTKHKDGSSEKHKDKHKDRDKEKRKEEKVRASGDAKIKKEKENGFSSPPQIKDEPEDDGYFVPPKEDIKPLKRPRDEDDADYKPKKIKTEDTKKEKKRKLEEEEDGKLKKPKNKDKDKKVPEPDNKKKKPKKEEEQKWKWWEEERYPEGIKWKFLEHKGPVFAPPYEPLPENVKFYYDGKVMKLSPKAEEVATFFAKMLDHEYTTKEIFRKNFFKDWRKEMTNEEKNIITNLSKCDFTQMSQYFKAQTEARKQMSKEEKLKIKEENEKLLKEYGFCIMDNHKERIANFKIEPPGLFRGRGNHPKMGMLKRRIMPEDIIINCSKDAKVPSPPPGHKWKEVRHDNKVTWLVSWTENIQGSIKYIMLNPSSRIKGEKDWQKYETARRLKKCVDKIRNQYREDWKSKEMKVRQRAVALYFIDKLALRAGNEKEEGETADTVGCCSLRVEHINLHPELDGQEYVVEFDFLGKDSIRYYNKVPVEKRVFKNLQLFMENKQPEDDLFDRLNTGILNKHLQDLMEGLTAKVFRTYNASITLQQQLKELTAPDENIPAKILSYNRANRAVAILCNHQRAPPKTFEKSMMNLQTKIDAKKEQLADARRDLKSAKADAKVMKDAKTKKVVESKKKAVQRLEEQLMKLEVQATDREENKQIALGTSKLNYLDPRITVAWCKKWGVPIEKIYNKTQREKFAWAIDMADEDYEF
The test can be described thus: Inhibition of human topoisomerase 1-mediated supercoiled pUC19 DNA relaxation at 1 to 50 uM after 45 mins by agarose gel electrophoresis.

Test [2] concerns MIA PaCa-2. The test can be described thus: Induction of apoptosis in human MIAPaCa2 cells at 10 uM after 24 hrs using propidium iodide/Annexin-V staining by flow cytometry relative to control. The format is functional.
Test [3] in a line: Binding affinity to DNA (unknown origin) after 15 mins by DNase I footprinting assay.
The subject of test [4] is SW-620. The test can be described thus: Induction of apoptosis in human SW620 cells at 10 uM after 48 hrs using propidium iodide/Annexin-V staining by flow cytometry relative to control. It is filed as functional.
The test system of test [5] is SW-620. The test can be described thus: Induction of apoptosis in human SW620 cells at 10 uM after 24 hrs using propidium iodide/Annexin-V staining by flow cytometry relative to control. The format is functional.
The test system of test [6] is SW-620. The test can be described thus: Cell cycle arrest in human SW620 cells assessed as accumulation in G2/M phase at 10 uM after 48 hrs using propidium iodide staining by flow cytometry relative to control. The format is functional.
Test [7] relates to SW-620. The test can be described thus: Cell cycle arrest in human SW620 cells assessed as accumulation in S phase at 10 uM after 48 hrs using propidium iodide staining by flow cytometry relative to control. The format is functional.
In test [8] the test system is SW-620. The test can be described thus: Cell cycle arrest in human SW620 cells assessed as accumulation in G1 phase at 10 uM after 48 hrs using propidium iodide staining by flow cytometry relative to control. The format is functional.
In test [9] the test system is SW-620. The test can be described thus: Cell cycle arrest in human SW620 cells assessed as accumulation in S phase at 5 uM after 48 hrs using propidium iodide staining by flow cytometry relative to control. It is filed as functional.
In test [10] the test system is SW-620. The test can be described thus: Cell cycle arrest in human SW620 cells assessed as accumulation in G1 phase at 5 uM after 48 hrs using propidium iodide staining by flow cytometry relative to control. The format is functional.
Test [11] deals with SW-620. The test can be described thus: Cell cycle arrest in human SW620 cells assessed as accumulation in sub-G1 phase at 5 uM after 48 hrs using propidium iodide staining by flow cytometry relative to control. The format is functional.
The test system of test [12] is SW-620. The test can be described thus: Cell cycle arrest in human SW620 cells assessed as accumulation in G2/M phase at 10 uM after 24 hrs using propidium iodide staining by flow cytometry relative to control. It is filed as functional.
Test [13] has as its system SW-620. The test can be described thus: Cell cycle arrest in human SW620 cells assessed as accumulation in G1 phase at 5 uM after 24 hrs using propidium iodide staining by flow cytometry relative to control. The format is functional.
Test [14] concerns SW-620. The test can be described thus: Cell cycle arrest in human SW620 cells assessed as accumulation in sub-G1 phase at 5 uM after 24 hrs using propidium iodide staining by flow cytometry relative to control. The format is functional.

The source made the active and inactive calls. No cut-off for these calls is given here.

On to `Cl.Cl.c1cc2nc(-c3ccc(-c4nc5ccc(C6=NCCN6)cc5s4)cc3)sc2cc1C1=NCCN1`, for which the inhibition entry in [1] is “Active”. The same compound came in with an Activity in [2] of 5%.

In the case of `Cl.Cl.c1cc(-c2nc3ccc(C4=NCCN4)cc3s2)cc(-c2nc3ccc(C4=NCCN4)cc3s2)c1`, the outcome in test [3] was Active. Besides, the Activity turned out to be 95% in test [4]; 8% in test [5]; 6.8% in test [6]; 69.6% in test [7]; 23.7% in [8]; 48.6% in [9]. The Activity in [10] amounted to 36.7%; in test [11], 24.8%; in [12], 23.9%; in test [13] it was 45.3%; in test [14], 13.5%.
